Data set [1] has as its target C-X-C chemokine receptor type 4 (Homo sapiens) (UniProt P61073). As to the kind of experiment: Displacement of biotinylated-TN14003 from CXCR4 in human MDA-MB-231 cells assessed as reduction in fluorescence preincubated for 10 mins followed by biotinylated-TN14003 addition measured after 30 mins by streptavidin-rhodamine staining based microscopic analysis. The data set is classed as cell-based.

For data set [2] the target is unchanged. As to the kind of experiment: Inhibition of CXCR4/CXCL12 interaction-mediated chemotaxis in human MDA-MB-231 cells assessed as inhibition of cell invasion at 100 nM after 22 hrs by hematoxylin/eosin dye-based matrigel assay relative to control.
Data set [3] deals with Mus musculus. As to the kind of experiment: Anti-inflammatory activity in mouse assessed as inhibition of xylene-induced ear edema at 10 mg/kg, ip administered 30 mins post xylene challenge measured after 2 hrs relative to control. The data set is classed as functional.
Data set [4] deals with Mus musculus. As to the kind of experiment: Anti-inflammatory activity in xylene-induced ear edema mouse model assessed as reduction in ear thickness at 10 mg/kg, ip administered 30 mins post xylene challenge measured after 2 hrs by hematoxylin/eosin dye-based assay. The data set is classed as functional, organism-based.
The test system of data set [5] is Mus musculus. As to the kind of experiment: Anti-inflammatory activity in xylene-induced ear edema mouse model assessed as reduction in edema volume at 10 mg/kg, ip administered 30 mins post xylene challenge measured after 2 hrs by hematoxylin/eosin dye-based assay. The data set is classed as functional, organism-based.
For data set [6], the system named is Mus musculus. As to the kind of experiment: Anti-inflammatory activity in xylene-induced ear edema mouse model assessed as reduction in inflammatory cells at 10 mg/kg, ip administered 30 mins post xylene challenge measured after 2 hrs by hematoxylin/eosin dye-based assay. The data set is classed as functional, organism-based.
Data set [7] has as its target C-X-C chemokine receptor type 4 (Homo sapiens) (UniProt P61073). As to the kind of experiment: Potency index, ratio of AMD3100 EC to compound EC for displacement of biotinylated TN14003 from CXCR4 in human MDA-MB-231 cells. The data set is classed as cell-based.
The test system of data set [8] is Mus musculus. As to the kind of experiment: Anti-inflammatory activity in Swiss albino mouse assessed as inhibition of xylene-induced ear edema at 30 mg/kg, ip pretreated for 1 hr followed by xylene challenge measured after 30 mins relative to control. The data set is classed as functional.
Data set [9] has as its target C-X-C chemokine receptor type 4 (Homo sapiens) (UniProt P61073). As to the kind of experiment: Inhibition of CXCR4/CXCL12 (unknown origin) interaction-mediated Akt phosphorylation by western blot analysis. In general terms: Immunoblotting shows a protein as a band on a membrane.
Data set [10] addresses C-X-C chemokine receptor type 4 (Mus musculus) (UniProt P70658). As to the kind of experiment: Inhibition of CXCR4 in mouse J774A.1 cells assessed as reduction in Crohn's disease-associated Escherichia coli 131 infection-induced TNF-alpha level at 200 nM relative to control. The data set is classed as cell-based.
In data set [11] the test system is MDA-MB-231. As to the kind of experiment: Cytotoxicity against human MDA-MB-231 cells assessed as cell viability at 10 uM measured after 24 hrs by MTT assay. The data set is classed as cell-based. To be noted: mda-mb-231, 24 h.

Structures are written as SMILES. Active and inactive are the calls of the source. The calls are words filed in the database; no cut-off is given here.

The term inhibition denotes the relative decrease from the control value, in per cent. By inhibition in vivo is commonly meant the percentage by which the read-out fell short of the control.

Sequence of C-X-C chemokine receptor type 4 (Homo sapiens) (P61073 whole entry): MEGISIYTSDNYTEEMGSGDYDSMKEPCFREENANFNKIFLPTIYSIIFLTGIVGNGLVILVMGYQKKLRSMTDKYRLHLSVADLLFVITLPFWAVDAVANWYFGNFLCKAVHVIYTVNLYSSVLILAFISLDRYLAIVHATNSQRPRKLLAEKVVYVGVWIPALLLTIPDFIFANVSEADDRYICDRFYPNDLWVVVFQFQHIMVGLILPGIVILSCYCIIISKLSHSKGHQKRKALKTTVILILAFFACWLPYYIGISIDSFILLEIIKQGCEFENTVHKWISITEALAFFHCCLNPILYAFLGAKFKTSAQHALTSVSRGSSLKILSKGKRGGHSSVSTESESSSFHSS
Sequence of C-X-C chemokine receptor type 4 (Mus musculus) (P70658 whole entry): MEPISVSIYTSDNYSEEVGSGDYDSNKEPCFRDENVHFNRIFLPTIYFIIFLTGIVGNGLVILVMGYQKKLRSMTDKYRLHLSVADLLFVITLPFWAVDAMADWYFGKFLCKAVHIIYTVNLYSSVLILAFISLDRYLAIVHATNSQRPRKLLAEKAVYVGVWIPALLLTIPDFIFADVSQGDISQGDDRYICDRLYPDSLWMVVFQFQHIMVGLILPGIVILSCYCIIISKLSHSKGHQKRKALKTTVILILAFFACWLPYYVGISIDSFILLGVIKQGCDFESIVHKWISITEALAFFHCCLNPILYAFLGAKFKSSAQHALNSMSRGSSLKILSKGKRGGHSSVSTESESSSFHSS

With `O=C(NCc1ccc(CNS(=O)(=O)c2ccc3c(c2)CCO3)cc1)c1cccnc1`, in data set [1], the EC amounted to 1000 nM. The inhibition in [2] worked out at 60%. The inhibition in vivo at 10 mg/kg in data set [3] is 10%.

With `Cc1nnsc1C(=O)NCc1ccc(CNS(=O)(=O)c2ccc(F)c(F)c2)cc1`, in data set [1], the EC is 10 nM. Also, the inhibition in data set [2] was 40%. The inhibition in vivo at 10 mg/kg in [3] came out at 54%. The result in [4], in data set [5] and in data set [6] was Active.

Take `O=C(NCc1ccc(CNS(=O)(=O)c2cccc(F)c2)cc1)c1cc2ccccn2n1`: the EC in data set [1] turned out to be 1000 nM. The inhibition in [2] turned out to be 40%.

As to `c1cc(CN2CCCNCCNCCCNCC2)ccc1CN1CCCNCCNCCCNCC1`, the inhibition in data set [2] came out at 55%.

In the case of `O=C(NCc1ccc(CNS(=O)(=O)c2ccc(F)c(F)c2)cc1)c1cnc2ccccn12`, the EC in [1] is more than 1000 nM.

With `O=C(NCc1ccc(CNS(=O)(=O)c2ccc3c(c2)CCO3)cc1)c1cc2ccccn2n1`, in data set [1], the EC came to 1 nM. In addition, the Ratio in data set [7] was found to be 1000. Besides, the inhibition in [2] stood at 40%.

On to `Cc1ccc(-c2cc(C(F)(F)F)nn2-c2ccc(S(N)(=O)=O)cc2)cc1` [CELECOXIB], for which the inhibition in vivo at 30 mg/kg in data set [8] was determined as 47%.

On to `O=C(NCc1ccc(CNS(=O)(=O)c2ccccc2F)cc1)c1cc2ccccn2n1`, for which the EC in data set [1] was determined as 100 nM. The inhibition in [2] is 40%.

As to `O=C(NCc1ccc(CNS(=O)(=O)c2ccc(F)cc2F)cc1)c1ncc[nH]1`, the EC in data set [1] was more than 1000 nM.

Consider `O=C(NCc1ccc(CNS(=O)(=O)c2ccc3c(c2)CCO3)cc1)c1scc2c1OCCO2`, for which the EC in data set [1] turned out to be 10 nM. Besides, the inhibition in data set [2] was 68%. In data set [3], the inhibition in vivo at 10 mg/kg is 0%.

Consider `O=C(NCc1ccc(CNS(=O)(=O)c2ccc3c(c2)CCO3)cc1)c1cccc2c1COC2`, for which the EC in [1] came out at 1000 nM. Besides, in data set [2], the inhibition was determined as 40%.

`Cc1cc(C(=O)NCc2ccc(CNS(=O)(=O)c3ccc4c(c3)CCO4)cc2)n(C)n1`: the EC in data set [1] was 1000 nM. Further, the inhibition entry in data set [2] is “Active”. The inhibition in vivo at 10 mg/kg in [3] was 35%.

As for `O=C(NCc1ccc(CNS(=O)(=O)c2ccc(F)cc2F)cc1)c1cncnc1`, in data set [1], the EC was determined as 1 nM. Moreover, in data set [7], the Ratio worked out at 1000. The figures for the inhibition in data set [2], in [9] and in data set [10] were 74%, “Dose-dependent effect” and 67%, respectively. For the same compound, the inhibition in vivo at 10 mg/kg in [3] came out at 56%. Besides, the outcome in data set [4], in data set [5] and in [6] was Active. Also, in data set [11], the Activity entry is “Non-Toxic”.

On to `Cn1nccc1C(=O)NCc1ccc(CNS(=O)(=O)c2ccc3c(c2)CCO3)cc1`, for which, in [1], the EC was 1000 nM. Moreover, the inhibition in data set [2] amounted to 40%. The inhibition in vivo at 10 mg/kg in [3] amounted to 38%.

(Values after ChEMBL document CHEMBL4002572, “Development of CXCR4 modulators by virtual HTS of a novel amide-sulfamide compound library” (Eur J Med Chem, 2017).)
